# EP2640377B1, “FGFR1 EXTRACELLULAR DOMAIN COMBINATION THERAPIES” (Five Prime Therapeutics, Inc., priority 2010, dated 2012)
# Read-outs that look alike come from different tables or passages of the source.
# Experiments:
# [1] = tested on: Human non-small cell lung cancer (NSCLC) cell line H1703; experiment: H1703 non-small cell lung cancer (NSCLC) xenograft model: tumor volume and body weight; type: in vivo, SCID mice; details: day 38
# Procedure: Human non-small cell lung cancer (NSCLC) cell line H1703 was used as the tumor model and was purchased from ATCC (Manassas, VA; Cat. No. CRL-5889).
# Docetaxel was purchased from Toronto Research Chemicals (North York, Ontario, Canada; cat. No. D494420) and formulated in H2O containing 5% Tween 80 and 5% glucose. Docetaxel was administered i.p. at 25 mg/kg (equivalent to about 75 mg/m^2 in a human) once every three weeks for two doses. In combination groups, FGFR1-ECD.339-Fc and docetaxel were either given concurrently or sequentially with FGFR1-ECD.339-Fc given one day before docetaxel or vice versa. Human albumin was purchased from Grifols USA (Los Angeles, CA; Cat. No. NDC 61953-0002-1), formulated in PBS at 3 mg/mL and was used as negative control at 300 µg/100 µL/mouse (15 mg/kg). Table 2: Dosing Schedule
# The tumor volume was measured by external caliper to determine the greatest longitudinal diameter (length) and the greatest transverse diameter (width). The tumor volume was then calculated using the following formula: Tumorvolume(mm^3) = (length × width^2)/2 [formula]
# Table 3. Tumor volume analysis on day 38
# Table 4. Analysis of fractional tumor volumea on day 38
# A549 cells = experiment: A549 non-small cell lung cancer (NSCLC) xenograft model: tumor volume and body weight; details: for Fractional tumor volume (FTV), agent alone: day 32
# [2] = tested on: Squamous cell lung cancer cell line NCI-H520; details: for Fractional tumor volume (FTV), agent alone / Tumor growth inhibition (%) / Mean Tumor volume mm^3(±SD): day 49; for Tumor growth inhibition (%): alone or with FGFR1-ECD.339-Fc 15 mg/kg; for Mean Tumor volume mm^3(±SD): alone or with FGFR1-ECD.339-Fc 15 mg/kg i.p. 2x/wk
# Procedure: Six to eight week old female SCID mice were purchased from Charles River Laboratories (Wilmington, MA) and were acclimated for 1 week before the start of the study. […] The cells were cultured for three to four passages in RPMI+10% FBS + 1% L-glutamine at 37°C in a humidified atmosphere with 5% CO2. When the cultured cells reached 85-90% confluence, cells were harvested and resuspended in cold Ca^2+ and Mg^2+ free PBS containing 50% Matrigel at 3.5 x10^7 cells/ml. The cells were implanted subcutaneously over the right flank of the mice at 3.5x10^6 cells/100µl/mouse. One day after tumor implantation, mice were randomized according to body weight at 10 mice per group. Dosing for all groups began one day post tumor implantation.
# FGFR1-ECD.339-Fc was formulated in PBS at 3 mg/ml and administered intraperitoneally (i.p.) at 15 mg/kg (300 µg/100 µl/mouse) twice a week for six weeks. […] In combination groups, FGFR1-ECD.339-Fc and pemetrexed were administered on the same schedule as when given as single agents, and were administered concurrently on days 1, 4, 8, and 11.
# The tumor volume and body weight of the mice were monitored twice a week throughout study.
# The mice were euthanized by isoflurane inhalation and cervical dislocation.
# The tumor volume of each group of mice on day 49 was analyzed by one-way ANOVA followed by Tukey's test.
# [3] = FGFR1-ECD.339-Fc 15 mg/kg i.p. twice a week, docetaxel 25 mg/kg i.p. once every three weeks for two doses
# [4] = pemetrexed 62.5 mg/kg i.p. QD x 5 x 2 cycles
# [5] = pemetrexed 125 mg/kg i.p. QD x 5 x 2 cycles
# [6] = pemetrexed 250 mg/kg i.p. (only first five doses given)
structure (smiles),measurement,setting,value
"CC(=O)O[C@@]12CO[C@@H]1C[C@H](O)[C@@]1(C)C(=O)[C@H](O)C3=C(C)[C@@H](OC(=O)[C@H](O)[C@@H](NC(=O)OC(C)(C)C)c4ccccc4)C[C@@](O)([C@@H](OC(=O)c4ccccc4)[C@H]21)C3(C)C [Docetaxel, 1,7β,10β-trihydroxy-9-oxo-5β,20-epoxytax-11-ene-2α,4,13α-triyl 4-acetate 2-benzoate 13-{(2R,3S)-3-[(tert-butoxycarbonyl)amino]-2-hydroxy-3-phenylpropanoate}]",Mean Tumor volume mm^3(±SD),[1]; [3],209 (±303) mm^3
same,Tumor growth inhibition (%),[1]; [3],74%
same,"Fractional tumor volume (FTV), agent alone","[1]; FGFR1-ECD.339-Fc 15 mg/kg, docetaxel 25 mg/kg, FTV = mean TV treated / mean TV control",0.25
same,"Fractional tumor volume (FTV), agent alone",A549 cells; docetaxel 3 mg/kg i.p. twice per week alone,0.79
same,"Fractional tumor volume (FTV), agent alone",A549 cells; docetaxel 10 mg/kg i.p. twice per week alone,0.58
"Nc1nc2[nH]cc(CCc3ccc(C(=O)N[C@@H](CCC(=O)O)C(=O)O)cc3)c2c(=O)[nH]1 [Pemetrexed, (S)-2-[4-[2-(4-amino-2-oxo-3,5,7-triazabicyclo[4.3.0]nona-3,8,10-trien-9-yl)ethyl]benzoyl] aminopentanedioic acid]","Fractional tumor volume (FTV), agent alone",[2]; pemetrexed 62.5 mg/kg alone,0.59
same,Tumor growth inhibition (%),[2]; [4],40%
same,Mean Tumor volume mm^3(±SD),[2]; [4],544.7 (±341.5) mm^3
same,"Fractional tumor volume (FTV), agent alone",[2]; pemetrexed 125 mg/kg alone,0.75
same,Tumor growth inhibition (%),[2]; [5],24%
same,Mean Tumor volume mm^3(±SD),[2]; [5],689.5 (±328.7) mm^3
same,"Fractional tumor volume (FTV), agent alone",[2]; pemetrexed 250 mg/kg alone,1.00
same,Tumor growth inhibition (%),[2]; [6],1%
same,Mean Tumor volume mm^3(±SD),[2]; [6],926.6 (±339.9) mm^3
same,tumor inhibition over the course of the study,"[2]; highest dose of pemetrexed (250 mg/kg), alone or with FGFR1-ECD.339-Fc",did not appear to inhibit tumor growth
"CC[C@]1(O)C[C@H]2CN(CCc3c([nH]c4ccccc34)[C@@](C(=O)OC)(c3cc4c(cc3OC)N(C=O)[C@H]3[C@@](O)(C(=O)OC)[C@H](OC(C)=O)[C@]5(CC)C=CCN6CC[C@]43[C@@H]65)C2)C1 [Vincristine, methyl (1R,9R,10S,11R,12R,19R)-11-(acetyloxy)-12-ethyl-4-[(13S,15S,17S)-17-ethyl-17-hydroxy-13-(methoxycarbonyl)-1,11-diazatetracyclo[13.3.1.0^4,12.0^5,10]nonadeca-4(12),5,7,9-tetraen-13-yl]-8-formyl-10-hydroxy-5-methoxy-8,16-diazapentacyclo[10.6.1.0^1,9.0^2,7.0^16,19]nonadeca-2,4,6,13-tetraene-10-carboxylate]",weight loss,"A549 cells; higher dose of vincristine (1.5 mg/kg), Figure 9C",lost weight
same,weight loss,"A549 cells; lower dose of vincristine (1 mg/kg), data not shown",did not lose weight
